Measured values: a melting point compilation (Tetko et al.; mined from patent text by program, amines drawn as free bases though some values may be those of a salt)

melting point [°C]	Compound
165 to 168	COc1c(Cl)ccc(-c2cc(N)c(Cl)c(C(=O)OCc3ccc(Cl)cc3Cl)n2)c1F
252	O=C(O)Cc1ccc(NC(=O)c2ccc(Cl)cc2)cc1
122 to 123	O=C(O)Cc1ccccc1OCCCCc1cc(-c2ccc(C(F)(F)F)cc2)no1
249	N#Cc1nc(N)nc(N)c1-c1ccc(Cl)cc1Cl
228 to 231	O=C(CCl)Nc1ccc2[nH]c(=O)oc2c1
150 to 152	COC(=O)c1ccccc1-n1c(CCl)nc2cc(Cl)ccc2c1=O
131 to 135	Nc1cc(Oc2ccc(NC(=O)Nc3ccc(-c4ccncc4)c(C(F)(F)F)c3)cc2)ncn1
76 to 78	CCC(=O)NCCC1CCc2cc(F)c(OC)cc21 (stereo not drawn)
94 to 95	CCC(CC)c1ccc(Cl)c2nc(Cl)n(C)c12
74 to 74.5	C=Cn1c2ccccc2c2cc(Br)ccc21
169 to 170	S=c1nc(-c2ccc(Cl)cc2Cl)[nH]n1Cc1ccccc1
212 to 213	Cc1c(C=NO)c2cc(Cl)ccc2n1-c1ccc(O)cc1
240	CCCC(=O)Nc1n[nH]c2cc(Cl)c(-c3ccc(CC)cc3)cc12
161 to 162	O=[N+]([O-])c1ccc(S(=O)(=O)NCc2ccc(Cl)cc2)c([N+](=O)[O-])c1
250	CCOc1ccc(-c2cc(C(F)(F)F)n3ncc(-c4ccnc(C)c4)c3n2)cc1C(F)(F)F
163 to 167	O=S1(=O)Cc2ccc(F)cc2C(c2ccc(F)cc2)=NN1CCCc1ccccc1
77 to 79	CCC(O)Cn1cc(-c2cccc(C(F)(F)F)c2)cn1 (stereo not drawn)
195 to 200	C=C(CN(C)C)C(O)c1ncc2c(c1O)COC2c1ccc(Cl)cc1 (stereo not drawn)
120 to 122	Nc1cnc(Br)c(Cl)n1
205	N#Cc1ncn2c(C(F)(F)F)cc(-c3ccc(Cl)cc3)nc12
122 to 125	OC(=S)c1cc(C(F)(F)F)ccc1O

melting point [°C]	Compound
165 to 167	CN(C)c1ccc2c(c1)NCC2
147 to 148	NC(=O)C1CCc2cc(S(=O)(=O)Cl)ccc2O1 (stereo not drawn)
75 to 77	CC(C)Oc1ccc(CCCCOc2cc(CCC(=O)O)n(-c3ccccc3)n2)c(Oc2ncc(C(F)(F)F)cc2Cl)c1
178	CSc1ncc(S(=O)(=O)NC(C)(C)C)c(Nc2cccc(C)c2)n1
217 to 218	N#CN=C(Cc1ccc2c(c1)Nc1nccnc1S2)NCCCC(=O)O
59 to 60	Clc1ccc(C2=CCCC2)cn1
100 to 102	N#Cc1c(C(F)(F)F)ccc(F)c1N
225 to 227	CCC(=O)NCC(C)(C)c1ccc(C(=O)Nc2cn3cc(Cl)ccc3n2)cc1
152 to 153	CC(C)Oc1c(-c2ccc(S(C)(=O)=O)cc2)cnn(CC(F)(F)F)c1=O
170 to 175	O=C(O)c1ccc2c(c1)C(c1ccccc1Cl)=NC=C1N=NC(C3CC3)N12 (stereo not drawn)
128 to 133	CC(C(=O)O)N(C(=O)OC(C)(C)C)c1ccc(N)cc1 (stereo not drawn)
188 to 190	O=C(C=NNc1cc(Oc2ncccn2)c(Cl)cc1F)C(F)(F)F
148 to 161	OCCCNc1nc2cc(C(F)(F)F)c(Br)cc2n2ccnc12
192	COc1ccc(N2CCN(c3ccc(N)cc3)CC2)cc1
183 to 186	c1cc2c3c(ccc2[nH]1)NCC3
230 to 233	Nc1nc(N)nc(-c2ccc(NS(=O)(=O)c3cc(Cl)ccc3Cl)cc2)n1
141	COc1cccc(CCN2C(=O)c3c(F)ccc(F)c3C2(O)c2ccccc2)c1 (stereo not drawn)
139 to 141	COc1cc(-c2cn3ccccc3n2)c(F)cc1Cl
62.5 to 64.3	N#Cc1ccc(CCC2CCC(=O)CC2)cc1
147	Fc1cccc(Cl)c1-c1c(Cl)cc(-c2ncccn2)nc1Cl
187	CCCCOC(=O)c1ccccc1C(=O)Nc1nc2ccccc2[nH]1

The next lines start with the compound.

Compound	melting point [°C]
CN1C(=O)N(CC2=C(CC3CCCC3)C(=O)OC2)C(=O)C1(C)C	77 to 79
CC(C)C(C)(C)NC(=S)Nc1cc(Cl)cc(Cl)c1	132 to 134
CCCOCCOc1ccc(-c2ccc3c(c2)C=C(C(=O)OC)CCN3c2ccccc2)cc1	117 to 119
O=[N+]([O-])c1c(Cl)nc(C2CC2)nc1Cl	50 to 52
C#Cc1ccc2c(c1)C(c1ccccn1)=NC(C)c1c(C(=O)OCC)ncn1-2 (stereo not drawn)	235 to 237
CC(=O)SC(CC(=O)c1ccc(C)cc1C)C(=O)O (stereo not drawn)	101 to 102
C=Cn1nc(-c2c(-c3ccccc3)nn3ccccc23)ccc1=O	188
O=C1[C@H]2CCC[C@H]2N(C(=O)CBr)c2ccccc2N1CCCc1ccccc1 (relative stereo)	130 to 132
CCOC(=O)CN1C(=O)c2cccc3cccc(c23)C1=O	160 to 162
CC1(C)CC(=O)Nc2cc3nc(-c4ccccc4)[nH]c3cc21	296 to 298
O=C1CC(CN2C(=O)c3ccccc3C2=O)=Nc2ccccc2N1	244 to 246
CCOC(=O)C1=C(COCCN2CCN(c3nc(N)n(C)n3)CC2)NC(C)=C(C(=O)OC)C1c1ccccc1Cl (stereo not drawn)	92 to 96
CCc1cccc(CNC[C@@H](O)[C@H](Cc2cc(F)cc(F)c2)NC(=O)c2ccc3ccncc3c2)c1	142 to 143
COC1(c2cnc(Sc3ccc(/C(C)=N/O)cc3)s2)CCOCC1	114 to 116
C=C(C)C(=O)NCCC#N	46 to 48
COC(=O)C1OC(OC(=N)C(Cl)(Cl)Cl)C(OC(=O)C(C)C)C(OC(=O)C(C)C)C1OC(=O)C(C)C (stereo not drawn)	108
C[Si](C)(C)CC1=C[C@@H](c2ccccc2)[C@H]2C(=O)OC(=O)[C@H]2C1 (racemic)	126
CCC1=NNC(C)=C(C(=O)OC2CCCC2)C1c1cccc([N+](=O)[O-])c1 (stereo not drawn)	110
CC(C)(C)c1cc2c(c(C(C)(C)C)c1O)CC1(CCCCC1)S2	128
O=S(=O)(/C=C/c1ccc(I)cc1)CS(=O)(=O)/C=C/c1ccc(I)cc1	253 to 255
CCCC(=O)Nc1n[nH]c2cc(-c3ccc(O)cc3)c(-c3ccccc3)cc12	220

Compound	melting point [°C]
O=[N+]([O-])c1ccc2c(c1)ncn2-c1cccc(-c2nccs2)c1	251 to 260
CNc1c(CC(C)O)cc([N+](=O)[O-])cc1[N+](=O)[O-] (stereo not drawn)	132
CCOC(=O)c1ccc(CCC=O)cc1	109
CN1CCc2cc([N+](=O)[O-])c(O)cc2C(c2cccc3c2OCC3)C1 (single isomer, unassigned; (+))	122 to 123
O=c1oc2ccc(O)cc2c(O)c1-c1ccccc1	261 to 263
CCC(C)(O)CCCCc1cccc(CCc2ccc(O)c(CO)c2)c1 (stereo not drawn)	101 to 104
CNC(=O)C(C)Oc1ccc(O)cc1 (stereo not drawn)	112
CCCCCCCCCCCCCCCCCCNC(=O)c1cc(O)cc(O)c1	114 to 117
CC(=O)NC[C@H]1CN(c2ccc(Br)cn2)C(=O)O1	166 to 168
CC1(C)SC(c2ccccc2C(=O)O)NC1C(=O)O (stereo not drawn)	185 to 186
CCCCC[C@H]1CC[C@H](c2ccc(-c3ccc(C=O)cc3)cc2)CC1	115 to 116
CC1Cc2cc(Cl)c(Cl)cc2C(c2ccc([N+](=O)[O-])cc2)=NN1 (stereo not drawn)	182 to 184
CCCn1c(NC(=O)c2ccccc2)nc2ccccc2c1=O	133 to 135
COc1cc2c(c3c1OC(C)(C)C3)C(c1cccc(OCC(N)=O)c1)=NC(C)(C)C2	172 to 174
COc1ccc(-n2cc(C)cc2-c2ccc(S(C)(=O)=O)cc2)cc1	154 to 160
CCCCCCCCCCCCCCCCCCS(=O)(=O)c1ccc(C)cc1	79 to 80
NC(=O)NC(C(=O)O)c1cccs1 (stereo not drawn)	183 to 185
COC(=O)CNCCNC(=O)c1nc(Cl)c(N)nc1N	145 to 146
COC1=NS(=O)N=C1NCCCCc1ncc(Br)cc1N (stereo not drawn)	118 to 120
CC(NC(=O)C1=C(C(=O)Nc2cc(OC3CCCC3)c(Cl)cc2F)CCCC1)c1ccccc1 (stereo not drawn)	173 to 175
CCOC(=O)CCC1NC(=O)CN1Cc1ccccc1 (stereo not drawn)	60 to 62

Compound	melting point [°C]
COC(=O)c1cccc(C(NCC(=O)Nc2c(C(C)C)cccc2C(C)C)c2ccccc2)c1 (stereo not drawn)	131 to 132
CN1C(=O)C(O)N(C2CCCCC2)C1=O (stereo not drawn)	140 to 141
CCCCCS(=O)(=O)NC(=O)/C=C/c1c(C)cc(C)n1Cc1ccc(Cl)cc1Cl	170 to 171
Cc1nc(C(=O)NS(=O)(=O)c2c(C)csc2C)no1	164
COc1cc2[nH]c(=O)c3c(c2cc1OC)CCN(CCN(C)C)C3	160 to 164
COc1cc2c(c(Cl)c1Cl)C(=O)C(C)(c1ccc(Br)cc1)C2 (stereo not drawn)	200 to 203
CCCc1c(OCCCOc2ccc(C(=O)C(=O)O)cc2)ccc(C(=O)OC)c1O	86 to 87
CC(C)(C)C(=O)CC(=O)c1ncn2c1c(=O)n(C(C)(C)C)c1ccccc12	190 to 191
Cc1nc(-c2ccc(N3CCOCC3)cc2)sc1-c1ccnc(Nc2ccc(N3CCOCC3)cc2)n1	273 to 274
COc1ccc(S(=O)(=O)NCc2ccco2)c2cc(C(C)=O)oc12	182 to 184
CC(C1CC1)C1NNC(=S)N(N)C1=O (stereo not drawn)	142 to 143
CCCOc1ccc(C2CCCN3CCS(=O)(=O)N=C23)cc1 (stereo not drawn)	169 to 170
CC(=O)C=Cc1c(C)c(C)c(C)c2c1OCC2	116
Cc1ccc2oc(=O)n(-c3ccnc(NC(=O)NCc4ccccn4)c3)c2c1	205 to 206
CCCCC(CC)C(=O)Nc1ccc2cnn(Cc3ccc(C(=O)OC)cc3OC)c2c1 (stereo not drawn)	136
Cc1cc2cc(CN3CCCCCC3)cnc2cc1NC(=O)c1ccc(-c2ccc(F)cc2)cc1	170 to 174
COc1cc2c(c(OC)c1OC)CC(N1CCC(n3c(=O)[nH]c4ccccc43)CC1)C2=O (stereo not drawn)	197 to 199
O=C1NCc2c1cc1ccc3c(c1c2-c1ccc(F)cc1)OCC3	302 to 305
CCN(CC)c1c(Cl)cc(C(O)CNC(C)(C)C)cc1Cl (stereo not drawn)	93 to 96
